Structures can show the parent of a compound that is named as a salt.
Tested on: retinal vascular permeability
Assay: Retinal vascular permeability (FITC-dextran leakage) in STZ-induced diabetic retinopathy rat models
Format: in vivo, Sprague Dawley (SD) rats
Settings: STZ 200 mg/kg i.p. rats; retina treated with 50, 100 or 250 μg imatinib mesylate at the same time as STZ; observed after 2 weeks by fluorescence microscope
Method: Sprague Dawley (SD) rats were administered intraperitoneally with streptozotocin (STZ; Sigma) at a dose of 200 mg/kg (control group), or were injected with STZ while the retina of the animal models were treated with 50, 100 or 250 μg of imatinib mesylate (Novartis, Switzerland) (test groups).
Meanwhile, after the animal models (control and test groups) were housed for 2 weeks, the animal models were anesthetized, and fluorescein isothiocyanate (FITC)-labeled dextran was injected intracardiacally so that the fluorescent substance flowed along the blood vessels.

**Q.** Cc1ccc(NC(=O)c2ccc(CN3CCN(C)CC3)cc2)cc1Nc1nccc(-c2cccnc2)n1 [imatinib mesylate] was tested. Which “leak degree of the fluorescent substance (FITC-labeled dextran) in the retina / vascular permeability” value did it give?
**A.** Its value is “significantly reduced”.

Source: patent US9511068B2, “Composition for treating or preventing diseases caused by vascular permeability, containing imatinib or pharmaceutically acceptable salt thereof as active ingredient” (AJOU UNIVERSITY INDUSTRY - ACADEMIC COOPERATION FOUNDATION, priority 2012, dated 2016)
